Like-named read-outs stand apart in the source and are kept apart here.
Assays:
[1] = log P determination by HPLC on reverse-phase column (C 18), acidic range pH 2.3 (EEC Directive 79/831 Annex V. A8); format: physicochemical; details: for chromatographic logP: reverse-phase HPLC column (C 18)
Method: The stated log P values were determined in accordance with EEC Directive 79/831 Annex V. A8 by HPLC (High Performance Liquid Chromatography) on a reverse-phase column (C 18). Temperature: 43° C. Mobile phases for the determination in the acidic range (pH 2.3): 0.1% aqueous phosphoric acid, acetonitrile; linear gradient from 10% acetonitrile to 90% acetonitrile. Calibration was carried out using unbranched alkan-2-ones (having 3 to 16 carbon atoms) with known log P values (determination of the log P values by the retention times using linear interpolation between two successive alkanones).

Puccinia recondita = test: Puccinia test (wheat)/protective; format: in vivo; details: 240 h, protective, application rate 500 g/ha, evaluation 10 days after inoculation, 0% = control, 100% = no infection, read-out: Efficacy in %
Method: (§1) To produce a suitable preparation of active compound, 1 part by weight of active compound is mixed with the stated amounts of solvent and emulsifier, and the concentrate is diluted with water to the desired concentration.
To test for protective activity, young plants are sprayed with the preparation of active compound at the stated application rate. After the spray coating has dried on, the plants are sprayed with a conidia suspension of Puccinia recondita. The plants remain in an incubation cabinet at 20° C. and 100% relative atmospheric humidity for 48 hours. The plants are then placed in a greenhouse at a temperature of about 20° C. and a relative atmospheric humidity of 80%.
(§2) Evaluation is carried out 10 days after the inoculation. 0% means an efficacy which corresponds to that of the control, whereas an efficacy of 100% means that no infection is observed.

Podosphaera leucotricha = test: Podosphaera test (apple)/protective; format: in vivo; details: protective, application rate 100 g/ha, evaluation 10 days after inoculation, 0% = control, 100% = no infection
Method: (§3) To produce a suitable preparation of active compound, 1 part by weight of active compound is mixed with the stated amounts of solvents and emulsifier, and the concentrate is diluted with water to the desired concentration.
To test for protective activity, young plants are sprayed with the preparation of active compound at the stated application rate. After the spray coating has dried on, the plants are inoculated with an aqueous spore suspension of Podosphaera leucotricha. The plants are then placed in a greenhouse at about 23° C. and a relative atmospheric humidity of about 70%.
as §2

Venturia inaequalis = test: Venturia test (apple)/protective; format: in vivo; details: protective, application rate 100 g/ha, evaluation 10 days after inoculation, 0% = control, 100% = no infection
Method: as §3
To test for protective activity, young plants are sprayed with the preparation of active compound at the stated application rate. After the spray coating has dried on, the plants ate inoculated with an aqueous conidia suspension of the apple scab pathogen Venturia inaequalis and then remain in an incubation cabinet as about 20° C. and 100% relative atmospheric humidity for 1 day. The plants are then placed in a greenhouse at about 21° C. and a relative atmospheric humidity of about 90%.
as §2

Botrytis cinerea = test: Botrytis test (bean)/protective; format: in vivo; details: protective, application rate 500 g/ha, evaluation 2 days after inoculation (size of infected areas), 0% = control, 100% = no infection
Method: as §3
To test for protective activity, young plants are sprayed with the preparation of active compound at the stated application rate. After the spray coating has dried on 2 small pieces of agar colonized by Botrytis cinerea are placed onto each leaf. The inoculated plants are placed in a dark chamber at about 20° C. and 100% relative atmospheric humidity.
2 days after the inoculation, the size of the infected areas on the leaves is evaluated. 0% means an efficacy which corresponds to that of the control, whereas an efficacy of 100% means that no infection is observed.

Alternaria solani = test: Alternaria test (tomato)/protective; format: in vivo; details: protective, application rate 750 g/ha, evaluation 7 days after inoculation, 0% = control, 100% = no infection
Method: as §1
To test for protective activity, young tomato plants are sprayed with the preparation of active compound at the stated application rate. 1 day after the treatment, the plants are inoculated with a spore suspension of Alternaria solani and then remain at 100% relative atmospheric humidity and 20° C. for 24 h. The plants then remain at 96% relative atmospheric humidity and a temperature of 20° C.
Evaluation is carried out 7 days after the inoculation. 0% means an efficacy which corresponds to that of the control, whereas an efficacy of 100% means that no infection is observed.

[2] = Table 1 (I-c), pH 2.3, HPLC C18, 43° C., main diastereomer or, where several values in a cell, the individual diastereomers
[3] = pH 2.3, Table 1 (I-c), pH 2.3, HPLC C18, 43° C., main diastereomer or, where several values in a cell, the individual diastereomers, read-out: logP
[4] = Table 3 (I-k), pH 2.3, HPLC C18, 43° C., main diastereomer or the individual diastereomers

| SMILES | logP [1, 2] | further results |
| --- | --- | --- |
| CC(C)(C)CCC1CCCCC1NC(=O)C1=C(C(F)(F)F)OCCS1 (mixture of isomers) [I-c-39] | 4.66 |  |
| Cn1cc(C(=O)NC2CCCCC2CCC(C)(C)C)c(C(F)(F)F)n1 (mixture of isomers) [I-c-40] | 4.45 |  |
| Cn1cc(C(=O)NC2CCCCC2CCC(C)(C)C)c(C(F)(F)F)c1 (mixture of isomers) [I-c-41] | 4.88 |  |
| CC(C)(C)CCC1CCCCC1NC(=O)c1nccnc1Cl (mixture of isomers) [I-c-42] | 4.27 |  |
| Cc1nc(C(F)(F)F)c(C(=O)NC2CCCCC2CCC(C)C)s1 (mixture of isomers) [I-c-56] | 4.6 |  |
| CC(C)CCC1CCCCC1NC(=O)c1cn(C)nc1C(F)(F)F (mixture of isomers) [I-c-57] | 4.19 |  |
| CC(C)CCC1CCCCC1NC(=O)c1cccnc1Cl (mixture of isomers) [I-c-58] | 3.76 |  |
| Cc1nc(C(F)F)c(C(=O)NC2CCCCC2CCC(C)C)s1 (mixture of isomers) [I-c-59] | 4.46 |  |
| Cc1nn(C)c(F)c1C(=O)NC1CCCCC1CCC(C)C (mixture of isomers) [I-c-60] | 3.79 |  |
| CC(C)CCC1CCCCC1NC(=O)c1ccccc1C(F)(F)F (mixture of isomers) [I-c-61] | 4.59 |  |
| CC(C)CCC1CCCCC1NC(=O)c1cn(C)nc1C(F)F (mixture of isomers) [I-c-62] | 3.95 |  |
| Cc1nn(C)cc1C(=O)NC1CCCCC1CCC(C)C (mixture of isomers) [I-c-63] | 3.19 |  |
| CC(C)CCC1CCCCC1NC(=O)C1=C(C(F)(F)F)OCCS1 (mixture of isomers) [I-c-64] | 4.42 |  |
| Cc1occc1C(=O)NC1CCCCC1CCC(C)C (mixture of isomers) [I-c-65] | 4.28 |  |
| CC1=C(C(=O)NC2CCCCC2CCC(C)C)SCCO1 (mixture of isomers) [I-c-68] | 4.51 |  |
| CC(C[Si](C)(C)C)C1CCCCC1NC(=O)c1cn(C)nc1C(F)F (mixture of isomers) [I-k-6] |  | logP ([1]; pH 2.3): 4.56 |
| Cc1nc(C(F)F)c(C(=O)NC2CCCCC2C(C)C[Si](C)(C)C)s1 (mixture of isomers) [I-k-8] |  | logP ([1]; pH 2.3): 5.13 |
| CC(C)CC(C)C1CCCCC1N (stereo not drawn) [2-(1,3-dimethylbutyl)cyclohexanamine] |  | chromatographic logP ([1]; pH 2.3, text of Example 1, pH 2.3, two values = mixture of diastereomers, read-out: log P (pH 2.3)): 4.07 |
| Cc1nn(C)c(F)c1C(=O)NC1CCCCC1C(C)CC(C)C (stereo not drawn) [I-c-1] |  | chromatographic logP [1, 3]: 4.15; pest or weed control at 500 g/ha (Puccinia recondita): 100%; Efficacy in % (Podosphaera leucotricha): 88%; Efficacy in % (Venturia inaequalis): 100% |

| SMILES | logP [1, 2] | further results |
| --- | --- | --- |
| CC(C)CC(C)C1CCCCC1NC(=O)c1cccnc1Cl (stereo not drawn) [I-c-2] | 4.04 |  |
| Cc1nc(C(F)(F)F)c(C(=O)NC2CCCCC2C(C)CC(C)C)s1 (stereo not drawn) [I-c-3] | 4.71 | chromatographic logP [1, 3]: 4.66; pest or weed control at 500 g/ha (Puccinia recondita): 100% |
| CC(C)CC(C)C1CCCCC1NC(=O)c1cn(C)nc1C(F)(F)F (stereo not drawn) [I-c-6] | 4.53 | chromatographic logP [1, 3]: 4.1; pest or weed control at 500 g/ha (Puccinia recondita): 100%; Efficacy in % (Botrytis cinerea): 90%; Efficacy in % (Venturia inaequalis): 99% |
| Cc1ccsc1C(=O)NC1CCCCC1C(C)CC(C)C (stereo not drawn) [I-c-9] | 5.15 | chromatographic logP [1, 3]: 4.73; pest or weed control at 500 g/ha (Puccinia recondita): 100% |
| CC1=C(C(=O)NC2CCCCC2C(C)CC(C)C)SCCO1 (stereo not drawn) [I-c-10] | 4.83 | Efficacy in % (Alternaria solani): 100%; chromatographic logP [1, 3]: 4.52; pest or weed control at 500 g/ha (Puccinia recondita): 100% |
| CC(C)CC(C)C1CCCCC1NC(=O)c1cn(C)cc1C(F)(F)F (stereo not drawn) [I-c-11] | 4.83 | chromatographic logP [1, 3]: 4.45; Efficacy in % (Botrytis cinerea): 96%; Efficacy in % (Venturia inaequalis): 90% |
| Cc1occc1C(=O)NC1CCCCC1C(C)CC(C)C (stereo not drawn) [I-c-12] | 4.58 | chromatographic logP [1, 3]: 4.27; pest or weed control at 500 g/ha (Puccinia recondita): 100% |
| Cc1nn(C)cc1C(=O)NC1CCCCC1C(C)CC(C)C (stereo not drawn) [I-c-14] | 3.47 | Efficacy in % (Alternaria solani): 100%; chromatographic logP [1, 3]: 3.18; pest or weed control at 500 g/ha (Puccinia recondita): 100% |
| Cn1cc(C(=O)NC2CCCCC2CCC(C)(C)C)c(C(F)F)n1 (stereo not drawn) [I-c-19] | 4.22 |  |
| Cc1nc(C(F)F)c(C(=O)NC2CCCCC2CCC(C)(C)C)s1 (stereo not drawn) [I-c-23] | 4.71 |  |
| Cn1nc(C(F)(F)F)c(C(=O)NC2CCCCC2CCC(C)(C)C)c1F (stereo not drawn) [I-c-24] | 4.72 |  |
| Cc1occc1C(=O)NC1CCCCC1CCC(C)(C)C (stereo not drawn) [I-c-25] | 4.55 |  |
| CC1=C(C(=O)NC2CCCCC2C(C)CC(C)C)CCO1 (stereo not drawn) [I-c-26] | 4.06 |  |
| CC(C)CCC1CCCCC1NC(=O)c1cn(C)cc1C(F)(F)F (stereo not drawn) [I-c-69] | 4.61 |  |
| CC(C)CCC1CCCCC1NC(=O)c1ccccc1I (stereo not drawn) [I-c-70] | 4.66 |  |
| CC(C)CCC1CCCCC1NC(=O)c1ccccc1Cl (stereo not drawn) [I-c-71] | 4.54 |  |
| CC(C)CCC1CCCCC1NC(=O)c1ccsc1I (stereo not drawn) [I-c-72] | 4.8 |  |
| CC(C)CCC1CCCCC1NC(=O)c1c(C(F)(F)F)nn(C)c1F (stereo not drawn) [I-c-74] | 4.47 |  |
| CC(C)CCCC1CCCCC1NC(=O)c1cccnc1Cl (stereo not drawn) [I-c-75] | 4.22 |  |

| SMILES | logP [1, 2] | further results |
| --- | --- | --- |
| CC(C)CCCC1CCCCC1NC(=O)c1cn(C)nc1C(F)(F)F (stereo not drawn) [I-c-76] | 4.66 |  |
| Cc1nn(C)c(Cl)c1C(=O)NC1CCCCC1CCC(C)C (stereo not drawn) [I-c-77] | 4.07 |  |
| Cc1nc(C(F)F)c(C(=O)NC2CCCCC2CCCC(C)C)s1 (stereo not drawn) [I-c-78] | 4.95 |  |
| Cc1nc(C(F)(F)F)c(C(=O)NC2CCCCC2CCCC(C)C)s1 (stereo not drawn) [I-c-79] | 5.06 |  |
| Cn1cc(C(=O)NC2CCCCC2CCC(C)(C)C)c(C(F)F)n1 (stereo not drawn) [I-c-81] | 4.24 |  |
| Cn1nc(C(F)(F)F)c(C(=O)NC2CCCCC2CCC(C)(C)C)c1F (stereo not drawn) [I-c-82] | 4.72 |  |
| CC(C)CCCC1CCCCC1NC(=O)c1cn(C)nc1C(F)F (stereo not drawn) [I-c-83] | 4.40 |  |
| Cc1nn(C)c(F)c1C(=O)NC1CCCCC1CCCC(C)C (stereo not drawn) [I-c-84] | 4.30 |  |
| CC(C)CCCC1CCCCC1NC(=O)c1cn(C)cc1C(F)(F)F (stereo not drawn) [I-c-86] | 5.05 |  |
| CC(C)(C)CCC1CCCCC1NC(=O)c1sccc1C(F)(F)F (stereo not drawn) [I-c-95] | 5.03 |  |
| CC(C)CC(C)C1CCCCC1NC(=O)c1sccc1C(F)(F)F (stereo not drawn) [I-c-96] | 5.03 |  |
| CC(C)(C)CCC1CCCCC1NC(=O)c1ccsc1C(F)(F)F (stereo not drawn) [I-c-97] | 4.87 |  |
| CC(C)CC(C)C1CCCCC1NC(=O)c1ccsc1C(F)(F)F (stereo not drawn) [I-c-98] | 4.92 |  |
| CC(CC(C)(C)C)C1CCCCC1NC(=O)c1sccc1C(F)(F)F (stereo not drawn) [I-c-99] | 5.29 |  |
| Cc1nn(C)c(F)c1C(=O)NC1CCCCC1CC[Si](C)(C)C (stereo not drawn) [I-k-1] |  | logP [1, 4]: 4.15 |
| Cc1nn(C)c(F)c1C(=O)NC1CCCCC1C(C)C[Si](C)(C)C (stereo not drawn) [I-k-2] |  | logP [1, 4]: 4.51 |
| C[Si](C)(C)CCC1CCCCC1NC(=O)c1ccsc1I (stereo not drawn) [I-k-3] |  | logP ([1]; pH 2.3): 5.13 |
| CC(C[Si](C)(C)C)C1CCCCC1NC(=O)c1ccsc1I (stereo not drawn) [I-k-4] |  | logP ([1]; pH 2.3): 5.44 |

Source: patent US8748471B2, “2-alkyl-cycloalk(en)yl-carboxamides” (priority 2004, dated 2014)
